From PubChem BioAssay AID2060505 (Molecular Pharmacology Branch, DTP, NCI, 2025)

Tested on: 633275-114-R-J1-PDC complex spheroids, viability
Experiment: Anticancer human tumor 633275-114-R-J1-PDC patient-derived endometrial adenocarcinoma cell line growth inhibition [GQUAD]
Conditions: for IC50: curve of first compound; for viability, T/C: stronger effect = lower value
Source text: DNA G-quadruplex Stabilizer Agents in Combinations in Complex Spheroids
A high-throughput screen of multi-cell type tumor spheroids was designed to identify active combinations of DNA G-quadruplex stabilizer agents and targeted small molecules. Complex spheroids include a stromal component modeled by human endothelial cells (HUVEC) and fibroblasts modeled by human mesenchymal stem cells (MSCs). The concentration ranges selected for each drug and investigational agent were based upon clinically achievable concentrations if the clinical Cmax of the agent was known.
Compounds. The drugs and investigational agents: pidnarulex (CX-5461; NSC782164), APTO-253 (NSC789042), BRACO-19 (NSC847499), peposertib (NSC802822), ceralasertib (NSC780249), elimusertib (NSC800525), camonsertib (NSC841442), AZD-1390 (NSC803789), olaparib (NSC753686), talazoparib (NSC767125), ART-558 (NSC835418), sotorasib (NSC818433), MRTX-1133 (NSC836407), SN-38 (NSC673596), topotecan (NSC609699), etoposide (NSC141540), doxorubicin (NSC123127), gemcitabine (NSC613327), 5-fluorouracil (NSC19893), paclitaxel (NSC125973), vemurafenib (NSC761431), panobinostat (NSC761190), R-306465 (JNJ-16241199; NSC773264), adavosertib (NSC754352), TP-3654 (NSC805149), carboplatin (NSC241240), KSQ-4279 (NSC840948), and staurosporine (NSC755774) were obtained from the National Cancer Institute (NCI) Developmental Therapeutics Program Chemical Repository (34). The FDA-approved anticancer drug set is available from the NCI Developmental Therapeutics Program. […] The stock solutions were prepared in dimethyl sulfoxide (DMSO, Sigma-Aldrich, St. Louis, MO, cat. D2650) at 800-fold the tested concentration and stored at -70 degrees C prior to their use. All drugs and investigational agents were tested over a range starting from a high concentration at or near the clinical Cmax and decreasing in half-log increments. If the clinical Cmax for an agent had not been determined, the highest concentration tested was 10 microM.
2.3 Cell Culture. All cells were maintained in an incubator at 37 degrees C and 5% CO2 with 95% humidity. The PDC lines were cultured according to standard operating procedures established by the NCI PDMR. All PDCs were thawed and cultured in Matrigel-coated flasks prepared with a working solution of 1X Ham's F-12 nutrient mix, without supplementation (Invitrogen, cat. 11765054), 100 U/mL penicillin-streptomycin (Invitrogen, cat. 15140122), and 2.5% Matrigel (Corning Inc., cat. 354248) for the first three passages. The 857933-349-R-J2-PDC line was cultured in 6C/Colon 1B media, which includes advanced DMEM/F-12 (Thermo Fisher Scientific, cat. 12634028), 10 mM HEPES (Thermo Fisher Scientific, cat. 15630080), 1X GlutaMAX supplement (Thermo Fisher Scientific, cat. 35050061), 0.1 mg/mL primocin (InvivoGen, cat. ant-pm-2), 10% defined fetal bovine serum, heat inactivated (HyClone Laboratories Inc., cat. SH30070.03HI), 50% L-WRN conditioned media (ATCC, cat. CRL-3276), 1.25 mM N-Acetyl-L-cysteine (Sigma-Aldrich, cat. A9165), 10 mM nicotinamide (Sigma-Aldrich, cat. N0636), 1X B-27 supplement (Thermo Fisher Scientific, cat. 17504044), 1X N-2 supplement (Thermo Fisher Scientific, cat. 17502048), 10 microM Y-27632 dihydrochloride (Tocris Bioscience, cat. 1254), and 50 ng/mL human EGF recombinant protein (Thermo Fisher Scientific, cat. PHG0311). The 485176-168-R4-J1-PDC line was cultured in Panc media, which includes all 6C/Colon 1B media components plus 100 ng/mL human FGF-10 (Thermo Fisher Scientific, cat. 100-26), 500 nM SB-431542 (Selleckchem, cat. S1067), and gastrin (Tocris, cat. 3006).
[…]
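Further: spheroids exposed to the agents for seven days.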
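Wherever viability, T/C is given: percent of DMSO vehicle control viability which is 100%.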

CC1COCCN1c1cc(-c2ccnn2C)c2ccnc(-c3ccn[nH]3)c2n1 (configuration not stated) + Cc1cnc(CNC(=O)c2c(=O)c3ccc(N4CCCN(C)CC4)nc3n3c2sc2ccccc23)cn1
IC50 (second compound 0.0316 µM): < 0.0316 µM
IC50 (second compound 0.1 µM): < 0.0316 µM
IC50 (second compound 0.316 µM): < 0.0316 µM
IC50 (second compound 1 µM): < 0.0316 µM
IC50 (second compound 3.16 µM): < 0.0316 µM
IC50 (second compound 10 µM): < 0.0316 µM
viability, T/C (second compound 0.0316 µM, first compound 0.0316 µM): 43.9%
viability, T/C (second compound 0.0316 µM, first compound 0.1 µM): 32.6%
viability, T/C (second compound 0.0316 µM, first compound 0.316 µM): 29.8%
viability, T/C (second compound 0.0316 µM, first compound 1 µM): 25.8%
viability, T/C (second compound 0.0316 µM, first compound 3.16 µM): 18.7%
viability, T/C (second compound 0.0316 µM, first compound 10 µM): 14.7%
viability, T/C (second compound 0.1 µM, first compound 0.0316 µM): 42.2%
viability, T/C (second compound 0.1 µM, first compound 0.1 µM): 37.7%
viability, T/C (second compound 0.1 µM, first compound 0.316 µM): 30.2%
viability, T/C (second compound 0.1 µM, first compound 1 µM): 22.6%
viability, T/C (second compound 0.1 µM, first compound 3.16 µM): 17.3%
viability, T/C (second compound 0.1 µM, first compound 10 µM): 14.9%
viability, T/C (second compound 0.316 µM, first compound 0.0316 µM): 38.8%
viability, T/C (second compound 0.316 µM, first compound 0.1 µM): 38.2%
viability, T/C (second compound 0.316 µM, first compound 0.316 µM): 30.6%
viability, T/C (second compound 0.316 µM, first compound 1 µM): 24%
viability, T/C (second compound 0.316 µM, first compound 3.16 µM): 17.5%
viability, T/C (second compound 0.316 µM, first compound 10 µM): 10.9%
viability, T/C (second compound 1 µM, first compound 0.0316 µM): 36.9%
viability, T/C (second compound 1 µM, first compound 0.1 µM): 36.6%
viability, T/C (second compound 1 µM, first compound 0.316 µM): 29.1%
viability, T/C (second compound 1 µM, first compound 1 µM): 22.2%
viability, T/C (second compound 1 µM, first compound 3.16 µM): 15.4%
viability, T/C (second compound 1 µM, first compound 10 µM): 11.1%
viability, T/C (second compound 3.16 µM, first compound 0.0316 µM): 33.6%
viability, T/C (second compound 3.16 µM, first compound 0.1 µM): 29.1%
viability, T/C (second compound 3.16 µM, first compound 0.316 µM): 25%
viability, T/C (second compound 3.16 µM, first compound 1 µM): 20.8%
viability, T/C (second compound 3.16 µM, first compound 3.16 µM): 13.3%
viability, T/C (second compound 3.16 µM, first compound 10 µM): 9.84%
viability, T/C (second compound 10 µM, first compound 0.0316 µM): 28.5%
viability, T/C (second compound 10 µM, first compound 0.1 µM): 24.7%
viability, T/C (second compound 10 µM, first compound 0.316 µM): 23.4%
viability, T/C (second compound 10 µM, first compound 1 µM): 18.4%
viability, T/C (second compound 10 µM, first compound 3.16 µM): 14.4%
viability, T/C (second compound 10 µM, first compound 10 µM): 8.93%
